Measurements: patent publication US20070025976A1, “Process for the purification of coenzyme Q10” (Cargill, Inc., priority 2005, published 2007)

Experiment: Solubility of pure CoQ10 in ethanol
Assay type: physicochemical
Procedure: The chromatography product from Example 8 is dissolved in 200 proof ethanol to create a 9 wt-% solution at 55° C. This should create a slightly sub-saturated solution. Table VI below provides solubility data for pure CoQ10 in ethanol.

Solubility (30 °C): 0.38 g/100 g Solvent
Solubility (50 °C): 8.99 g/100 g Solvent
Solubility (60 °C): 11.0 g/100 g Solvent
Structure (SMILES): COC1=C(OC)C(=O)C(C/C=C(\C)CC/C=C(\C)CC/C=C(\C)CC/C=C(\C)CC/C=C(\C)CC/C=C(\C)CC/C=C(\C)CC/C=C(\C)CC/C=C(\C)CCC=C(C)C)=C(C)C1=O [CoQ10, 2,3 dimethoxy-5 methyl-6 decaprenyl benzoquinone]
